Experimental data reported in the supplement of paper PMC10307832.

Legend:
Assay in all cases: relative viability (nuclei count vs DMSO), 5 days (fraction); higher = more cells survive
PC-14 = system: PC-14
Procedure, shortened: (§1)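 For relative viability, nuclei counts in treated wells were divided by those in vehicle wells. Lung cancer cell lines had been pin-tool dosed in 1536-well plates the day after seeding and cultured for 5 days, then fixed and stained in one step (final 0.05% Triton X-100, 1% formaldehyde, 1 ug/ml Hoechst) and imaged at 4×. Doses were one drug alone or a fixed anchor-drug dose plus five library-drug doses (not always all listed) in √10 steps, and values are duplicate-plate medians.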

NCI-H23 = system: NCI-H23
Procedure, shortened: as §1

NCI-H2347 = system: NCI-H2347
Procedure, shortened: as §1

NCI-H2087 = system: NCI-H2087
Procedure, shortened: as §1

NCI-H1666 = system: NCI-H1666
Procedure, shortened: as §1

201T = system: 201T
Procedure, shortened: as §1

LCLC-97TM1 = system: LCLC-97TM1
Procedure, shortened: as §1

NCI-H650 = system: NCI-H650
Procedure, shortened: as §1

LC-2-ad = system: LC-2-ad
Procedure, shortened: as §1

NCI-H2126 = system: NCI-H2126
Procedure, shortened: as §1

NCI-H520 = system: NCI-H520
Procedure, shortened: as §1

ChaGo-K-1 = system: ChaGo-K-1
Procedure, shortened: as §1

NCI-H647 = system: NCI-H647
Procedure, shortened: as §1

EPLC-272H = system: EPLC-272H
Procedure, shortened: as §1

HCC-78 = system: HCC-78
Procedure, shortened: as §1

NCI-H661 = system: NCI-H661
Procedure, shortened: as §1

HCC-827 = system: HCC-827
Procedure, shortened: as §1

RERF-LC-KJ = system: RERF-LC-KJ
Procedure, shortened: as §1

NCI-H1915 = system: NCI-H1915
Procedure, shortened: as §1

H3255 = system: H3255
Procedure, shortened: as §1

NCI-H2405 = system: NCI-H2405
Procedure, shortened: as §1

COR-L 105 = system: COR-L 105
Procedure, shortened: as §1

SMILES: O=c1cc(-c2cccc3c2Sc2ccccc2S3)oc(N2CCOCC2)c1 + Cc1cc(Nc2cc(N3CCN(C)CC3)nc(Sc3ccc(NC(=O)C4CC4)cc3)n2)n[nH]1 [Tozasertib] (partner 0.1 µM)
- relative viability (PC-14; first compound 0.08 µM): 0.594
- relative viability (PC-14; first compound 0.253 µM): 0.572
- relative viability (PC-14; first compound 0.8 µM): 0.548
- relative viability (PC-14; first compound 8 µM): 0.554
- relative viability (NCI-H23; first compound 0.08 µM): 0.629
- relative viability (NCI-H23; first compound 0.253 µM): 0.341
- relative viability (NCI-H23; first compound 0.8 µM): 0.357
- relative viability (NCI-H23; first compound 2.53 µM): 0.296
- relative viability (NCI-H23; first compound 8 µM): 0.283
- relative viability (NCI-H2347; first compound 0.08 µM): 0.668
- relative viability (NCI-H2347; first compound 0.253 µM): 0.605
- relative viability (NCI-H2347; first compound 0.8 µM): 0.351
- relative viability (NCI-H2347; first compound 2.53 µM): 0.53
- relative viability (NCI-H2347; first compound 8 µM): 0.404
- relative viability (NCI-H2087; first compound 0.08 µM): 0.231
- relative viability (NCI-H2087; first compound 0.253 µM): 0.282
- relative viability (NCI-H2087; first compound 0.8 µM): 0.266
- relative viability (NCI-H2087; first compound 2.53 µM): 0.191
- relative viability (NCI-H2087; first compound 8 µM): 0.171
- relative viability (NCI-H1666; first compound 0.08 µM): 0.612
- relative viability (NCI-H1666; first compound 0.253 µM): 0.603
- relative viability (NCI-H1666; first compound 0.8 µM): 0.625
- relative viability (NCI-H1666; first compound 2.53 µM): 0.539
- relative viability (NCI-H1666; first compound 8 µM): 0.615
- relative viability (201T; first compound 0.08 µM): 0.945
- relative viability (201T; first compound 0.253 µM): 0.982
- relative viability (201T; first compound 0.8 µM): 1.04
- relative viability (201T; first compound 2.53 µM): 0.923
- relative viability (201T; first compound 8 µM): 0.753
- relative viability (LCLC-97TM1; first compound 0.08 µM): 0.223
- relative viability (LCLC-97TM1; first compound 0.253 µM): 0.22
- relative viability (LCLC-97TM1; first compound 0.8 µM): 0.205
- relative viability (LCLC-97TM1; first compound 2.53 µM): 0.228
- relative viability (LCLC-97TM1; first compound 8 µM): 0.207
- relative viability (NCI-H650; first compound 0.08 µM): 0.641
- relative viability (NCI-H650; first compound 0.253 µM): 0.662
- relative viability (NCI-H650; first compound 0.8 µM): 0.758
- relative viability (NCI-H650; first compound 8 µM): 0.708
- relative viability (LC-2-ad; first compound 0.08 µM): 0.389
- relative viability (LC-2-ad; first compound 0.253 µM): 0.405
- relative viability (LC-2-ad; first compound 0.8 µM): 0.484
- relative viability (LC-2-ad; first compound 2.53 µM): 0.411
- relative viability (LC-2-ad; first compound 8 µM): 0.435
- relative viability (NCI-H2126; first compound 0.08 µM): 0.825
- relative viability (NCI-H2126; first compound 0.253 µM): 0.875
- relative viability (NCI-H2126; first compound 0.8 µM): 0.824
- relative viability (NCI-H2126; first compound 2.53 µM): 0.781
- relative viability (NCI-H2126; first compound 8 µM): 0.788
- relative viability (NCI-H520; first compound 0.08 µM): 0.383
- relative viability (NCI-H520; first compound 0.253 µM): 0.375
- relative viability (NCI-H520; first compound 0.8 µM): 0.502
- relative viability (NCI-H520; first compound 2.53 µM): 0.472
- relative viability (NCI-H520; first compound 8 µM): 0.421
- relative viability (ChaGo-K-1; first compound 0.08 µM): 0.213
- relative viability (ChaGo-K-1; first compound 0.253 µM): 0.215
- relative viability (ChaGo-K-1; first compound 0.8 µM): 0.218
- relative viability (ChaGo-K-1; first compound 2.53 µM): 0.21
- relative viability (ChaGo-K-1; first compound 8 µM): 0.209
- relative viability (NCI-H647; first compound 0.08 µM): 0.325
- relative viability (NCI-H647; first compound 0.253 µM): 0.0459
- relative viability (NCI-H647; first compound 0.8 µM): 0.224
- relative viability (NCI-H647; first compound 2.53 µM): 0.171
- relative viability (NCI-H647; first compound 8 µM): 0.462
- relative viability (EPLC-272H; first compound 0.08 µM): 0.238
- relative viability (EPLC-272H; first compound 0.253 µM): 0.193
- relative viability (EPLC-272H; first compound 0.8 µM): 0.299
- relative viability (EPLC-272H; first compound 2.53 µM): 0.237
- relative viability (EPLC-272H; first compound 8 µM): 0.236
- relative viability (HCC-78; first compound 0.08 µM): 0.295
- relative viability (HCC-78; first compound 0.253 µM): 0.457
- relative viability (HCC-78; first compound 0.8 µM): 0.511
- relative viability (HCC-78; first compound 2.53 µM): 0.384
- relative viability (HCC-78; first compound 8 µM): 0.334
- relative viability (NCI-H661; first compound 0.08 µM): 0.357
- relative viability (NCI-H661; first compound 0.253 µM): 0.357
- relative viability (NCI-H661; first compound 0.8 µM): 0.351
- relative viability (NCI-H661; first compound 2.53 µM): 0.339
- relative viability (NCI-H661; first compound 8 µM): 0.353
- relative viability (HCC-827; first compound 0.08 µM): 0.462
- relative viability (HCC-827; first compound 0.253 µM): 0.409
- relative viability (HCC-827; first compound 0.8 µM): 0.46
- relative viability (HCC-827; first compound 2.53 µM): 0.415
- relative viability (HCC-827; first compound 8 µM): 0.437
- relative viability (RERF-LC-KJ; first compound 0.08 µM): 0.417
- relative viability (RERF-LC-KJ; first compound 0.253 µM): 0.478
- relative viability (RERF-LC-KJ; first compound 0.8 µM): 0.539
- relative viability (RERF-LC-KJ; first compound 2.53 µM): 0.411
- relative viability (RERF-LC-KJ; first compound 8 µM): 0.389
- relative viability (NCI-H1915; first compound 0.08 µM): 0.495
- relative viability (NCI-H1915; first compound 0.253 µM): 0.446
- relative viability (NCI-H1915; first compound 0.8 µM): 0.428
- relative viability (NCI-H1915; first compound 2.53 µM): 0.401
- relative viability (NCI-H1915; first compound 8 µM): 0.332
- relative viability (H3255; first compound 0.08 µM): 0.441
- relative viability (H3255; first compound 0.253 µM): 0.604
- relative viability (H3255; first compound 0.8 µM): 0.759
- relative viability (H3255; first compound 2.53 µM): 0.686
- relative viability (H3255; first compound 8 µM): 0.867
- relative viability (NCI-H2405; first compound 0.08 µM): 0.667
- relative viability (NCI-H2405; first compound 0.253 µM): 0.752
- relative viability (NCI-H2405; first compound 0.8 µM): 0.72
- relative viability (NCI-H2405; first compound 2.53 µM): 0.638
- relative viability (NCI-H2405; first compound 8 µM): 0.681
- relative viability (COR-L 105; first compound 0.08 µM): 0.319
- relative viability (COR-L 105; first compound 0.253 µM): 0.357
- relative viability (COR-L 105; first compound 0.8 µM): 0.32
- relative viability (COR-L 105; first compound 2.53 µM): 0.363
- relative viability (COR-L 105; first compound 8 µM): 0.414
